Results taken from publication PMC7402526, “An in vitro quantitative systems pharmacology approach for deconvolving mechanisms of drug-induced, multilineage cytopenias” (PLoS Computational Biology, 2020).

Assays:
[1] = system: granulocyte progenitor (Gran-lin prog); assay: MLTA, GranP: concentration-response and QSP model fit; type: cell-based, human; conditions: Homo sapiens, 144 h
Summary of the method: (§1)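 Freeze-thawed primary human bone marrow CD34+ cells were grown in SFEM II with a multi-lineage cytokine cocktail, drug added day 0, six days at 37°C. Lineage counts came from 17-parameter flow with TruCount beads, vehicle-normalized per donor, then fitted by an Emax-based QSP model.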

granulocytes (Gran-lin) = assay: MLTA, Gran: concentration-response and QSP model fit; type: cell-based, human
Summary of the method: as §1

[2] = system: granulocyte-macrophage progenitor (GMPs); assay: MLTA, GMPs: concentration-response and QSP model fit; type: cell-based, human; conditions: Homo sapiens, 144 h, 6 days, normalized to vehicle control, read-out: GMPs normalized cell count
Summary of the method: (§2)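 Freeze-thawed primary human bone marrow CD34+ cells were cultured 6 days in SFEM II with a cytokine cocktail, drug added on day 0. Subsets were counted by 17-parameter flow cytometry with TruCount beads and normalized to vehicle wells. An Emax QSP model (Emax 0–2, L1 regularization) was fitted to these counts.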

[3] = system: neutrophils (neutrophil-lin); assay: MLTA, Neut: concentration-response and QSP model fit; type: cell-based, human; conditions: Homo sapiens, Neutrophil, 144 h
Summary of the method: as §2

[4] = system: lymphocyte progenitors (LymP); assay: MLTA, LymP: concentration-response and QSP model fit; type: cell-based, human; conditions: Homo sapiens, Lymphocyte, 144 h
Summary of the method: as §2

MK cells (MK-lin) = assay: MLTA, MK: concentration-response and QSP model fit; type: cell-based, human; conditions: Homo sapiens, 144 h
Summary of the method: as §2

[5] = system: total viable cells (totalViableCells); assay: MLTA, total live cells concentration-response; type: cell-based; conditions: Homo sapiens, 144 h, 6 days, normalized to vehicle control, read-out: total_live normalized cell count
Summary of the method: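 Freeze-thawed primary human bone marrow CD34+ cells in SFEM II with cytokine cocktail, drug added day 0, 6 days at 37°C, 5% CO2. Live/dead counts by 17-parameter flow cytometry with DAPI exclusion, bead-normalized, volume-corrected to cells/mL. Normalized per donor to mean of six vehicle wells; 2–7 donors pooled.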

[6] = system: human bone marrow-derived CD34+ cells differentiated into multiple hematopoietic lineages; assay: MLTA, overall effects across hematopoietic lineages; type: cell-based; conditions: QSP model fit; EmaxT > 1.0 = cell-killing
Procedure: A custom optimized cytokine cocktail was developed using commercially available cytokines (Peprotech, New Jersey) to facilitate simultaneous multi-lineage differentiation and self-renewal of freeze-thawed primary human bone marrow-derived CD34+ cells in SFEM II media (cells and media from StemCell Technologies, Vancouver). Cultures were carried out in ultra-low attachment 96-well plates (Corning, New York) with test article added on day 0 and cultured at 37°C, 85% relative humidity, and 5% CO2 for six days before interrogating drug impact via 17-parameter flow cytometry.
The flow cytometry panel used to define hematopoietic subsets was composed of CD34-PECy7, CD90-PECY5, CD38-AF488, CD371-PE, CD45Ra-BV421, CD14-BV605, CD42b-AF647, CD10-PEDazzle594, CD235a-PerCPCy5.5 (BioLegend, California), CD15-BUV395, CD41a-APCH7, CD71-BV786 (BD Biosciences, California), and DAPI for dead cell exclusion (ThermoFisher, California). In short, Day 6 cells were harvested, FcR-blocked (FcR binding inhibitor, ThermoFisher), surface-stained, then analyzed in a buffer containing TruCount Control Beads using a BD LSR Fortessa SORP fitted with a high-throughput sampler (BD Biosciences, California). Data was analyzed in Diva 6.0.2 and exported to CSV where after all cell data was transformed to cell per mL then normalized on a per-donor basis to untreated control wells to determine drug impact.
Donor material was collected and cultured as described above. The number of replicate donor samples per drug ranged from 2–7 and varied per drug (S1 Table). Drug treatment was added at time 0 and cells were maintained in culture for 6 days. Concentrations tested for each drug compound are contained in S1 Table. Concentrations were selected to span a range that is clinically useful. Following treatment, cell populations were measured using flow cytometry. We extracted cell counts from flow cytometry data, normalized to bead counts, and corrected for well volume.
Each well was normalized to the average of six vehicle control wells. For drugs that were tested across multiple runs of the assay, vehicle-normalized donor data were pooled, and we used the average of these pooled data for further modeling. Normalized data used as model inputs are included in S1 Table.
We implemented drug effects using an Emax model for the drug’s effect on each cell type. The 13 maximum effect parameters (EmaxT,C) are unitless and can vary between 0 and 2 and where a subscript, C, represents one of the previously described 13 cell types. We adapted a traditional Emax model using the equations below. We interpreted EmaxT values less than or equal to one as anti-proliferative, and EmaxT values greater than one as indicating a cell-killing mechanism in addition to anti-proliferation. The relationships for these effects are included in the model using the following equations. Eq 2 describes the drug anti-proliferative effect in the net proliferation rate for a given cell type. Eq 3 describes the cell-killing EmaxCK effect.

[7] = QSP model fit of 6-day MLTA data

For CC(=O)O[C@H]1C(=O)[C@@]2(C)[C@H]([C@H](OC(=O)c3ccccc3)[C@]3(O)C[C@H](OC(=O)[C@H](O)[C@@H](NC(=O)c4ccccc4)c4ccccc4)C(C)=C1C3(C)C)[C@]1(OC(C)=O)CO[C@@H]1C[C@@H]2O [paclitaxel], the activity at 0.0002 µM ([1]; dose 0.2 nM, 6 days, normalized to vehicle control, read-out: GranPs normalized cell count) was 114%, the activity at 0.001 µM ([1]; dose 1 nM, 6 days, normalized to vehicle control, read-out: GranPs normalized cell count) was 112% and the activity at 0.005 µM ([1]; dose 5 nM, 6 days, normalized to vehicle control, read-out: GranPs normalized cell count) was 106%. It also gave an activity at 0.025 µM ([1]; dose 25 nM, 6 days, normalized to vehicle control, read-out: GranPs normalized cell count) of 0.213%, an activity at 0.1 µM ([1]; dose 100 nM, 6 days, normalized to vehicle control, read-out: GranPs normalized cell count) of 0.0154% and an activity at 0.5 µM ([1]; dose 500 nM, 6 days, normalized to vehicle control, read-out: GranPs normalized cell count) of 0.032%. It also gave an activity at 2.5 µM ([1]; dose 2500 nM, 6 days, normalized to vehicle control, read-out: GranPs normalized cell count) of 0.0153%, an Emax ([1]; parameter from QSP model fitting, read-out: Emax_drug_GranP) of 0.04% and an EC50 (granulocytes (Gran-lin); Homo sapiens, 144 h, QSP model fit of 6-day MLTA data) of 15.8 nM. For the same molecule, the activity at 0.0002 µM (granulocytes (Gran-lin); Homo sapiens, 144 h, dose 0.2 nM, 6 days, normalized to vehicle control, read-out: Gran normalized cell count) was 104%, the activity at 0.001 µM (granulocytes (Gran-lin); Homo sapiens, 144 h, dose 1 nM, 6 days, normalized to vehicle control, read-out: Gran normalized cell count) was 122% and the activity at 0.005 µM (granulocytes (Gran-lin); Homo sapiens, 144 h, dose 5 nM, 6 days, normalized to vehicle control, read-out: Gran normalized cell count) was 92.8%. It also gave an activity at 0.025 µM (granulocytes (Gran-lin); Homo sapiens, 144 h, dose 25 nM, 6 days, normalized to vehicle control, read-out: Gran normalized cell count) of 0.105%, an activity at 0.1 µM (granulocytes (Gran-lin); Homo sapiens, 144 h, dose 100 nM, 6 days, normalized to vehicle control, read-out: Gran normalized cell count) of 0.0692% and an activity at 0.5 µM (granulocytes (Gran-lin); Homo sapiens, 144 h, dose 500 nM, 6 days, normalized to vehicle control, read-out: Gran normalized cell count) of 0.0215%. For the same molecule, the activity at 2.5 µM (granulocytes (Gran-lin); Homo sapiens, 144 h, dose 2500 nM, 6 days, normalized to vehicle control, read-out: Gran normalized cell count) was 0.0279%, the Emax (granulocytes (Gran-lin); Homo sapiens, 144 h, parameter from QSP model fitting, read-out: Emax_drug_Gran) was 236% and the “EmaxCK,Gran” value (granulocytes (Gran-lin); cell-killing component, max(0, EmaxT-1)) was 1.360 day⁻¹. The activity at 0.0002 µM ([2]; dose 0.2 nM) was 126%, the activity at 0.001 µM ([2]; dose 1 nM) was 119% and the activity at 0.005 µM ([2]; dose 5 nM) was 109%. The activity at 0.025 µM ([2]; dose 25 nM) was 3.34%, the activity at 0.1 µM ([2]; dose 100 nM) was 0.101% and the activity at 0.5 µM ([2]; dose 500 nM) was 0.687%. For the same molecule, the activity at 2.5 µM ([2]; dose 2500 nM) was 0.327%, the EC50 [3, 7] was 25.1 nM and the activity at 0.0002 µM ([3]; dose 0.2 nM, 6 days, normalized to vehicle control, read-out: Neut normalized cell count) was 88.3%. The activity at 0.001 µM ([3]; dose 1 nM, 6 days, normalized to vehicle control, read-out: Neut normalized cell count) was 80.1%, the activity at 0.005 µM ([3]; dose 5 nM, 6 days, normalized to vehicle control, read-out: Neut normalized cell count) was 52.3% and the activity at 0.025 µM ([3]; dose 25 nM, 6 days, normalized to vehicle control, read-out: Neut normalized cell count) was 0.045%. The activity at 0.1 µM ([3]; dose 100 nM, 6 days, normalized to vehicle control, read-out: Neut normalized cell count) was 0.0394%, the activity at 0.5 µM ([3]; dose 500 nM, 6 days, normalized to vehicle control, read-out: Neut normalized cell count) was 0% and the activity at 2.5 µM ([3]; dose 2500 nM, 6 days, normalized to vehicle control, read-out: Neut normalized cell count) was 0%. The Emax ([3]; parameter from QSP model fitting, read-out: Emax_drug_Neut) was 21.4%, the activity at 0.0002 µM ([4]; dose 0.2 nM, 6 days, normalized to vehicle control, read-out: LymP normalized cell count) was 122% and the activity at 0.001 µM ([4]; dose 1 nM, 6 days, normalized to vehicle control, read-out: LymP normalized cell count) was 143%. For the same molecule, the activity at 0.005 µM ([4]; dose 5 nM, 6 days, normalized to vehicle control, read-out: LymP normalized cell count) was 61.3%, the activity at 0.025 µM ([4]; dose 25 nM, 6 days, normalized to vehicle control, read-out: LymP normalized cell count) was 9.53% and the activity at 0.1 µM ([4]; dose 100 nM, 6 days, normalized to vehicle control, read-out: LymP normalized cell count) was 5.4%. It also gave an activity at 0.5 µM ([4]; dose 500 nM, 6 days, normalized to vehicle control, read-out: LymP normalized cell count) of 7.34%, an activity at 2.5 µM ([4]; dose 2500 nM, 6 days, normalized to vehicle control, read-out: LymP normalized cell count) of 9.6% and an Emax ([4]; parameter from QSP model fitting, read-out: Emax_drug_LymP) of 0.16%. The EC50 (MK cells (MK-lin); [7]) was 51.7 nM, the activity at 0.0002 µM (MK cells (MK-lin); dose 0.2 nM, 6 days, normalized to vehicle control, read-out: MK normalized cell count) was 108% and the activity at 0.001 µM (MK cells (MK-lin); dose 1 nM, 6 days, normalized to vehicle control, read-out: MK normalized cell count) was 110%. It also gave an activity at 0.005 µM (MK cells (MK-lin); dose 5 nM, 6 days, normalized to vehicle control, read-out: MK normalized cell count) of 111%, an activity at 0.025 µM (MK cells (MK-lin); dose 25 nM, 6 days, normalized to vehicle control, read-out: MK normalized cell count) of 9.64% and an activity at 0.1 µM (MK cells (MK-lin); dose 100 nM, 6 days, normalized to vehicle control, read-out: MK normalized cell count) of 0.962%. The activity at 0.5 µM (MK cells (MK-lin); dose 500 nM, 6 days, normalized to vehicle control, read-out: MK normalized cell count) was 0.754%, the activity at 2.5 µM (MK cells (MK-lin); dose 2500 nM, 6 days, normalized to vehicle control, read-out: MK normalized cell count) was 0.792% and the Emax (MK cells (MK-lin); parameter from QSP model fitting, read-out: Emax_drug_MK) was 25.9%. The viability at 0.0002 µM ([5]; dose 0.2 nM) was 102%, the viability at 0.001 µM ([5]; dose 1 nM) was 110% and the viability at 0.005 µM ([5]; dose 5 nM) was 75.9%. For the same molecule, the viability at 0.025 µM ([5]; dose 25 nM) was 1.22%, the viability at 0.1 µM ([5]; dose 100 nM) was 0.201% and the viability at 0.5 µM ([5]; dose 500 nM) was 0.291%. The viability at 2.5 µM ([5]; dose 2500 nM) was 0.232% and the “EmaxT effects across cell types (overall statement)” value [6] was > 1.0.
